In patent US20230373939A1 (VERTEX PHARMACEUTICALS INCORPORATED, priority 2020, published 2023):
pEC50: −log10 of the molar value.

Molecular target: T1, F508del in NIH 3T3 cells (Homo sapiens, UniProt P13569, DEL508-508)
T1 construct: expressed in transfected cells
Assay: 3T3 assay: membrane potential optical assay for F508del correction
Format: cell-based
Settings: NIH 3T3 cells, F508del; for Emax: NIH3T3, read-out: 3T3 Max Activity (%); for pEC50: read-out: 3T3 EC50
In short: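 NIH 3T3 mouse fibroblasts stably expressing F508del were incubated with corrector compounds at a range of concentrations for 16–24 h at 37 °C, then loaded with a voltage-sensing redistribution dye. Channel activity was read as membrane-potential change on FLIPR after a single addition of forskolin with a chloride-free (gluconate) bath creating a Cl⁻ gradient.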

T1 sequence (P13569 with tags, fused parts or gaps DEL508-508): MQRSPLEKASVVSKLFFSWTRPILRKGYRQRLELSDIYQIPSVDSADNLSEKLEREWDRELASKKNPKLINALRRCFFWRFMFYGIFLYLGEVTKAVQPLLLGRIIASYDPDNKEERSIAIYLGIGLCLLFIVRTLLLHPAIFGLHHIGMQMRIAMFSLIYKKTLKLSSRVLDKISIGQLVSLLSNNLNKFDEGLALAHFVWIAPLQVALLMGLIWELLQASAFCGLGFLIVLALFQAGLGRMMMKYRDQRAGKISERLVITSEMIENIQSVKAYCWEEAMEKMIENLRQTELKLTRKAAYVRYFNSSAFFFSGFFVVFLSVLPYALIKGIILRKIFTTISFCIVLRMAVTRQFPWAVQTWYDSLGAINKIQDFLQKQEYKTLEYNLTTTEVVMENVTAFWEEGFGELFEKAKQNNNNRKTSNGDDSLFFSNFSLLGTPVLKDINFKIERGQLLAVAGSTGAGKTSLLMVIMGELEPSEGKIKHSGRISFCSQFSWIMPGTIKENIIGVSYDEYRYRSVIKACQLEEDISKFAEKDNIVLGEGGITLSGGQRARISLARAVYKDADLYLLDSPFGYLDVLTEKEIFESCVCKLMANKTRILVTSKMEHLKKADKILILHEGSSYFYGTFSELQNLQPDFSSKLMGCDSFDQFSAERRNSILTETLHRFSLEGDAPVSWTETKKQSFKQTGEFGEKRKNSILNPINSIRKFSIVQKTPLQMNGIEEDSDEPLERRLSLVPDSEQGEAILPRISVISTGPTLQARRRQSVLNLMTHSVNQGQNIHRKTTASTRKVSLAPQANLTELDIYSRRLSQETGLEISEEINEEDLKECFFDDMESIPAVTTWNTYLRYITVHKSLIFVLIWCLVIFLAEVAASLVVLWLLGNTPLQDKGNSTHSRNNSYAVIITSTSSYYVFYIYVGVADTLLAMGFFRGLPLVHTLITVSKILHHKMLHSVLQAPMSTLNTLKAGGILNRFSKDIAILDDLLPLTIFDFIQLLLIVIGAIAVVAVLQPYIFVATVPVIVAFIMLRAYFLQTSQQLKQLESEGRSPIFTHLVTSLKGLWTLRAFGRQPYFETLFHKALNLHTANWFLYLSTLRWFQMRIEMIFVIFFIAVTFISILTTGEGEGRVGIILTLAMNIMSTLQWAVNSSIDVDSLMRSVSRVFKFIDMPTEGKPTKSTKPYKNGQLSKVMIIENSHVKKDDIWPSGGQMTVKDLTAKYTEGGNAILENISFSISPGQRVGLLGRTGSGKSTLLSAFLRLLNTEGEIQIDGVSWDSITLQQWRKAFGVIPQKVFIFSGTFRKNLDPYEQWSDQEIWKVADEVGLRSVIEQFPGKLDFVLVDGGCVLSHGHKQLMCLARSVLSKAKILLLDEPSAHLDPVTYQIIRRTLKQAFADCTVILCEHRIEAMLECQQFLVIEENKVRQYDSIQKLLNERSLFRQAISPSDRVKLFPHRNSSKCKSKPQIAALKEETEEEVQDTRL

Structure (SMILES)	Emax [%]	pEC50
O=S(=O)(Nc1nn(Cc2ccccc2)cc1-c1ccccc1Cl)c1ccccc1 [Compound 110, N-[1-benzyl-4-(2-chlorophenyl)pyrazol-3-yl]benzenesulfonamide]	< 30	
COc1ccc(-c2cn(Cc3ccccc3)nc2NS(=O)(=O)c2ccccc2)cc1 [Compound 111, N-[1-benzyl-4-(4-methoxyphenyl)pyrazol-3-yl]benzenesulfonamide]	< 30	
COc1cccc(-c2cn(Cc3ccccc3)nc2NS(=O)(=O)c2ccccc2)c1 [Compound 112]	< 30	
COc1ccccc1-c1cn(Cc2ccccc2)nc1NS(=O)(=O)c1ccccc1 [Compound 113, N-[1-benzyl-4-(2-methoxyphenyl)pyrazol-3-yl]benzenesulfonamide]	< 30	
Cc1cccc(-c2cn(Cc3ccccc3)nc2NS(=O)(=O)c2ccccc2)c1 [Compound 114, N-[1-benzyl-4-(m-tolyl)pyrazol-3-yl]benzenesulfonamide]	< 30	
Cc1ccccc1-c1cn(Cc2ccccc2)nc1NS(=O)(=O)c1ccccc1 [Compound 115]	< 30	
CCOC(=O)C1=C(c2ccccc2)N=C(NS(=O)(=O)c2ccccc2)SC1c1ccccc1 (stereo not shown) [Compound 116, ethyl 2-(benzenesulfonamido)-4,6-diphenyl-6H-1,3-thiazine-5-carboxylate]	> 60	> 6.00
O=S(=O)(NC1=NC(c2ccccc2)C=C(c2ccccc2)S1)c1ccccc1 (stereo not shown) [Compound 117, N-(4,6-diphenyl-4H-1,3-thiazin-2-yl)benzenesulfonamide]	30 to 60	5.52 to 6.00
O=S(=O)(Nc1ncc(-c2ccccc2)nc1-c1ccccc1)c1ccccc1 [Compound 118, N-(3,5-diphenylpyrazin-2-yl)benzenesulfonamide]	> 60	5.52 to 6.00
Cc1cccc(C)c1-c1cnc(NCc2ccccc2)c(NS(=O)(=O)c2ccccc2)n1 [Compound 119, N-[3-(benzylamino)-6-(2,6-dimethylphenyl)pyrazin-2-yl]benzenesulfonamide]	30 to 60	5.52 to 6.00
O=c1c(NS(=O)(=O)c2ccccc2)nc(-c2ccccc2)cn1-c1ccccc1 [Compound 120, N-(3-oxo-4,6-diphenyl-pyrazin-2-yl)benzenesulfonamide]	30 to 60	5.52 to 6.00
Cc1cccc(C)c1-c1cnc(Oc2ccccc2)c(NS(=O)(=O)c2ccccc2)n1 [Compound 121, N-[6-(2,6-dimethylphenyl)-3-phenoxy-pyrazin-2-yl]benzenesulfonamide]	< 30	
Cc1cccc(C)c1-c1cnc(N2CCN(C)CC2)c(NS(=O)(=O)c2ccccc2)n1 [Compound 122, N-[6-(2,6-dimethylphenyl)-3-(4-methylpiperazin-1-yl)pyrazin-2-yl]benzenesulfonamide]	< 30	
CC(C)Oc1nc(NS(=O)(=O)c2ccccc2)nc(-c2ccccc2)n1 [Compound 124, N-(4-isopropoxy-6-phenyl-1,3,5-triazin-2-yl)benzenesulfonamide]	30 to 60	4.52 to 5.52
O=S(=O)(Nc1nc(Oc2ccccc2)nc(-c2ccccc2)n1)c1ccccc1 [Compound 125, N-(4-phenoxy-6-phenyl-1,3,5-triazin-2-yl)benzenesulfonamide]	30 to 60	> 6.00
Nc1cccc(S(=O)(=O)Nc2nc(Oc3ccccc3)nc(-c3ccccc3)n2)c1 [Compound 126, 3-amino-N-(4-phenoxy-6-phenyl-1,3,5-triazin-2-yl)benzenesulfonamide]	30 to 60	4.52 to 5.52
CC1CN(c2cc(NS(=O)(=O)c3ccccc3)nc(Oc3ccccc3)n2)C(C)(C)C1 (stereo not shown) [Compound 128, N-[2-phenoxy-6-(2,2,4-trimethylpyrrolidin-1-yl)pyrimidin-4-yl]benzenesulfonamide]	30 to 60	> 6.00
CC1CN(c2nc(NS(=O)(=O)c3ccccc3)cc(Oc3ccccc3)n2)C(C)(C)C1 (stereo not shown) [Compound 129, N-[6-phenoxy-2-(2,2,4-trimethylpyrrolidin-1-yl)pyrimidin-4-yl]benzenesulfonamide]	< 30	
O=S(=O)(Nc1cc(-c2ccccc2)nc(Oc2ccccc2)n1)c1ccccc1 [Compound 130, N-(2-phenoxy-6-phenylpyrimidin-4-yl)benzenesulfonamide]	30 to 60	5.52 to 6.00
O=S(=O)(Nc1cc(-c2ccccc2)nc(-c2ccccc2)n1)c1ccccc1 [Compound 131, N-(2,6-diphenylpyrimidin-4-yl)benzenesulfonamide]	> 60	5.52 to 6.00
O=S(=O)(Nc1cc(OCc2ccccc2)nc(-c2ccccc2)n1)c1ccccc1 [Compound 132, N-(6-benzyloxy-2-phenyl-pyrimidin-4-yl)benzenesulfonamide]	30 to 60	5.52 to 6.00
O=S(=O)(Nc1cc(Oc2ccccc2)cc(Oc2ccccc2)n1)c1ccccc1 [Compound 133, N-(4,6-Diphenoxy-2-pyridyl)benzenesulfonamide]	> 60	5.52 to 6.00

Structure (SMILES)	Emax [%]	pEC50
Cc1ccc(-c2nc(NS(=O)(=O)c3ccccc3)ccc2C)cc1C [Compound 134, N-[6-(3,4-Dimethylphenyl)-5-methyl-2-pyridyl]benzenesulfonamide]	> 60	4.52 to 5.52
Cc1cc(NS(=O)(=O)c2ccccc2)nc(-c2cc(C)ccc2C)c1 [Compound 135, N-[6-(2,5-Dimethylphenyl)-4-methyl-2-pyridyl]benzenesulfonamide]	> 60	5.52 to 6.00
O=S(=O)(Nc1cc(Oc2ccccc2)cc(-c2ccccc2)n1)c1ccccc1 [Compound 136, N-(4-phenoxy-6-phenyl-2-pyridyl)benzenesulfonamide]	> 60	5.52 to 6.00
Cc1ccc(NS(=O)(=O)c2ccccc2)nc1-c1cccc(C)c1C [Compound 137, N-[6-(2,3-Dimethylphenyl)-5-methyl-2-pyridyl]benzenesulfonamide]	> 60	5.52 to 6.00
Cc1ccc(C)c(-c2nc(NS(=O)(=O)c3ccccc3)ccc2C)c1 [Compound 138, N-[6-(2,5-Dimethylphenyl)-5-methyl-2-pyridyl]benzenesulfonamide]	> 60	5.52 to 6.00
Cc1ccc(C)c(-c2nc(NS(=O)(=O)c3ccccc3)cc(C)c2C)c1 [Compound 139, N-[6-(2,5-Dimethylphenyl)-4,5-dimethyl-2-pyridyl]benzenesulfonamide]	> 60	5.52 to 6.00
CCCc1ccc(NS(=O)(=O)c2ccccc2)nc1-c1ccc(C)cc1 [Compound 140, N-[5-propyl-6-(p-tolyl)-2-pyridyl]benzenesulfonamide]	> 60	5.52 to 6.00
C/C=C/c1ccc(NS(=O)(=O)c2ccccc2)nc1Oc1ccccc1 [Compound 141, N-[6-phenoxy-5-[(E)-prop-1-enyl]-2-pyridyl]benzenesulfonamide]	> 60	5.52 to 6.00
O=S(=O)(Nc1cc(-c2ccccc2)cc(Oc2ccccc2)n1)c1ccccc1 [Compound 142, N-(6-phenoxy-4-phenyl-2-pyridyl)benzenesulfonamide]	> 60	> 6.00
Cc1ccc(-c2cc(NS(=O)(=O)c3ccccc3)nc(-c3ccc(C)cc3)c2)cc1 [Compound 143, N-[4,6-bis(p-tolyl)-2-pyridyl]benzenesulfonamide]	> 60	5.52 to 6.00
Cc1ccc(-c2ccc(NS(=O)(=O)c3ccccc3)nc2-c2ccc(C)cc2)cc1 [Compound 144, N-[5,6-bis(p-tolyl)-2-pyridyl]benzenesulfonamide]	> 60	5.52 to 6.00
C/C=C/c1ccc(NS(=O)(=O)c2ccccc2)nc1-c1ccc(C)cc1 [Compound 148]	> 60	5.52 to 6.00
Cc1cc(C)cc(-c2nc(NS(=O)(=O)c3ccccc3)ccc2C)c1 [Compound 149]	> 60	4.52 to 5.52
Cc1ccc(-c2nc(NS(=O)(=O)c3ccccc3)ccc2C)c(C)c1 [Compound 150]	> 60	5.52 to 6.00
Cc1cc(C)cc(-c2cc(C)cc(NS(=O)(=O)c3ccccc3)n2)c1 [Compound 151]	30 to 60	4.52 to 5.52
Cc1cc(NS(=O)(=O)c2ccccc2)nc(-c2ccc(C)cc2C)c1 [Compound 152]	> 60	4.52 to 5.52
Cc1cc(NS(=O)(=O)c2ccccc2)nc(-c2ccc(C)c(C)c2)c1 [Compound 153]	> 60	4.52 to 5.52
Cc1cc(NS(=O)(=O)c2ccccc2)nc(-c2cccc(C)c2C)c1 [Compound 154]	> 60	4.52 to 5.52
Cc1cc(C)cc(-c2nc(NS(=O)(=O)c3ccccc3)cc(C)c2C)c1 [Compound 155]	> 60	5.52 to 6.00
Cc1ccc(-c2nc(NS(=O)(=O)c3ccccc3)cc(C)c2C)c(C)c1 [Compound 156]	> 60	4.52 to 5.52
Cc1ccc(-c2nc(NS(=O)(=O)c3ccccc3)cc(C)c2C)cc1C [Compound 157]	> 60	5.52 to 6.00
Cc1cccc(-c2nc(NS(=O)(=O)c3ccccc3)cc(C)c2C)c1C [Compound 158]	> 60	4.52 to 5.52
